From patent US8691855B2, “Compounds, isomer thereof, or pharmaceutically acceptable salts thereof as vanilloid receptor antagonist and pharmaceutical compositions containing the same” (Amorepacific Corporation, priority 2008, dated 2014) come the findings set out here.

The target in this assay is T1, vanilloid receptor (Rattus norvegicus, UniProt O35433).
T1 construct: DRG nerve cells from the primary culture of 2 days were equilibrated; endogenous in cells; host or cells: primary culture of dorsal root ganglion neurons from neonatal SD rats
T1 sequence (O35433 whole entry): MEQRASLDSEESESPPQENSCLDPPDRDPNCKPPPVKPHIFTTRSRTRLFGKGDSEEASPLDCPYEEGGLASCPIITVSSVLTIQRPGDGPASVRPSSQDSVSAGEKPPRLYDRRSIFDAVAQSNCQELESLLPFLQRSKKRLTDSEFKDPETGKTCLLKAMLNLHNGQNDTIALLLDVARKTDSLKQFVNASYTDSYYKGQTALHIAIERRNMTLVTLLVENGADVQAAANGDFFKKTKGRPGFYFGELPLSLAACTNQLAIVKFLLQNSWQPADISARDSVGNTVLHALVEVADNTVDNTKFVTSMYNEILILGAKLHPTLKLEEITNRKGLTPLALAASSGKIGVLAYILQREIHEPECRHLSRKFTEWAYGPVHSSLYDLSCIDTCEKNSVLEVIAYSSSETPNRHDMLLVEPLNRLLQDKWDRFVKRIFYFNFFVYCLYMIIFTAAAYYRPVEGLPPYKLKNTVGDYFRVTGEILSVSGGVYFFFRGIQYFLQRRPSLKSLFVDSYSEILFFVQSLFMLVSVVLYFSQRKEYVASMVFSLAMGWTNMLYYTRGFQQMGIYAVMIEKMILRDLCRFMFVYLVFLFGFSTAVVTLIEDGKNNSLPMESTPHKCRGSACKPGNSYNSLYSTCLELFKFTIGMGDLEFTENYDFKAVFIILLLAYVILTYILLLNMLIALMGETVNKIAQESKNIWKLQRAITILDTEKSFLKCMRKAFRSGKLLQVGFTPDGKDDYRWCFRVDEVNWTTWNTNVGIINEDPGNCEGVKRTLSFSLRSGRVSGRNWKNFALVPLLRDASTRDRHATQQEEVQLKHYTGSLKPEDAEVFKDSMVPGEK
Kind of assay: 45Ca influx test (antagonist calcium uptake test) in rat DRG neurons stimulated with capsaicin. It counts as cell-based. The conditions noted are these: neonatal SD rat DRG neurons; capsaicin 0.5 μM; 45Ca. Put shortly: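 Neonatal SD rat DRG neurons, cultured 2 days with NGF 200 ng/ml, exposed to test compound plus 0.5 μM capsaicin and 45Ca (10 μCi/ml) in HEPES-buffered Ca/Mg-free HBSS, pH 7.4, 10 min at room temperature. Influx counted by scintillation; activity as percent inhibition of the 0.5 μM capsaicin maximal response.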

Take `C[C@@H](NC(=O)c1coc(-c2cccc(C(F)(F)F)c2F)n1)c1cc(F)c(NS(C)(=O)=O)c(F)c1` (stereo in doubt) [Example 79, 2-(2-Fluoro-3-trifluoromethyl-phenyl)-oxazole-4-carboxylic acid [1-(3,5-difluoro-4-methanesulfonylamino-phenyl)-ethyl]-amide]: the IC50 is 0.99 µM. For the compound `C[C@@H](NC(=O)c1coc(-c2ccc(-c3ccccc3)cc2)n1)c1cc(F)c(NS(C)(=O)=O)c(F)c1` [Example 78, 2-Biphenyl-4-yl-oxazole-4-carboxylic acid [1-(3,5-difluoro-4-methanesulfonylamino-phenyl)-ethyl]-amide], the IC50 is above 10 µM. Next, `CC(=O)c1cccc(-c2nc(C(=O)N[C@H](C)c3cc(F)c(NS(C)(=O)=O)c(F)c3)co2)c1` [Example 76, 2-(3-Acetyl-phenyl)-oxazole-4-carboxylic acid [1-(3,5-difluoro-4-methanesulfonylamino-phenyl)-ethyl]-amide]: above 10 µM; `C[C@@H](NC(=O)c1coc(Oc2ccc3c(c2)CCC3)n1)c1cc(F)c(NS(C)(=O)=O)c(F)c1` [Example 22, 2-(Indan-5-yloxy)-oxazole-4-carboxylic acid [1-(3,5-difluoro-4-methanesulfonylamino-phenyl)-ethyl]-amide]: 1.9 µM. Regarding `C[C@@H](NC(=O)c1coc(Oc2cccc(I)c2)n1)c1cc(F)c(NS(C)(=O)=O)c(F)c1` [Example 58, 2-(3-Iodo-phenoxy)-oxazole-4-carboxylic acid [1-(3,5-difluoro-4-methanesulfonylamino-phenyl)-ethyl]-amide], the IC50 was 0.093 µM. Take `C[C@@H](NC(=O)c1coc(-c2cccc(Cl)c2)n1)c1cc(F)c(NS(C)(=O)=O)c(F)c1` [Example 82, 2-(3-Chloro-phenyl)-oxazole-4-carboxylic acid [1-(3,5-difluoro-4-methanesulfonylamino-phenyl)-ethyl]-amide]: the IC50 is 0.65 µM. Take `CC(C)c1ccc(Oc2nc(C(=O)N[C@H](C)c3cc(F)c(NS(C)(=O)=O)c(F)c3)co2)cc1` [Example 5, 2-(4-Isopropyl-phenoxy)-oxazole-4-carboxylic acid [1-(3,5-difluoro-4-methanesulfonylamino-phenyl)-ethyl]-amide]: the IC50 is 3.6 µM. Regarding `C[C@@H](NC(=O)c1coc(-c2cc(Cl)cc(Cl)c2)n1)c1cc(F)c(NS(C)(=O)=O)c(F)c1` [Example 83, 2-(3,5-Dichloro-phenyl)-oxazole-4-carboxylic acid [1-(3,5-difluoro-4-methanesulfonylamino-phenyl)-ethyl]-amide], the IC50 was 0.88 µM. For `C[C@@H](NC(=O)c1coc(Oc2cccc(C3CCCC3)c2)n1)c1cc(F)c(NS(C)(=O)=O)c(F)c1` [Example 51, 2-(3-Cyclopentyl-phenoxy)-oxazole-4-carboxylic acid [1-(3,5-difluoro-4-methanesulfonylamino-phenyl)-ethyl]-amide], the IC50 was 1.1 µM.

Turning to `C[C@@H](NC(=O)c1coc(-c2cccc(-c3ccccc3)c2)n1)c1cc(F)c(NS(C)(=O)=O)c(F)c1` [Example 70, 2-Biphenyl-3-yl-oxazole-4-carboxylic acid [1-(3,5-difluoro-4-methanesulfonylamino-phenyl)-ethyl]-amide], the IC50 was 0.87 µM.

Regarding `CS(=O)(=O)Nc1ccc(CNC(=O)c2ccc(-c3ccc(F)c(C(F)(F)F)c3)o2)cc1F` [Example 125, 5-(4-Fluoro-3-trifluoromethyl-phenyl)-furan-2-carboxylic acid 3-fluoro-4-methanesulfonylamino-benzylamide], the IC50 came out at 0.53 µM. As for `C[C@@H](NC(=O)c1coc(-c2ccc(C(C)(C)C)cc2)n1)c1cc(F)c(NS(C)(=O)=O)c(F)c1` [Example 75, 2-(4-tort-Butyl-phenyl)-oxazole-4-carboxylic acid [1-(3,5-difluoro-4-methanesulfonylamino-phenyl)-ethyl]-amide], the IC50 stood at 2.4 µM.

As a reminder, the IC50 is the concentration that gives 50% inhibition.
